Test results reported in publication PMC9730296, “High-Throughput Steady-State Enzyme Kinetics Measured in a Parallel Droplet Generation and Absorbance Detection Platform” (Analytical Chemistry, 2022).

Tested on: T1, SN243
T1 construct: purified
Test: pNP release, absorbance […] nm in microfluidic droplets
Format: biochemical, metagenome: source not printed
Conditions: 100 mM Tris pH 8.0, 150 mM NaCl, room temperature, substrate in DMSO

| Structure (SMILES) | Km (mean of 12 datasets) [mM] | Km (detection points 1-4 only) [mM] |
| --- | --- | --- |
| O=[N+]([O-])c1ccc(O[C@@H]2O[C@H](CO)[C@@H](O)[C@H](O)[C@H]2O)cc1 [pNP-β-Glc] | 36.8 ± 9 | – |
| O=[N+]([O-])c1ccc(O[C@@H]2OC[C@@H](O)[C@H](O)[C@H]2O)cc1 [pNP-β-Xyl] | 21.9 ± 1.6 | – |

The remaining lines, values ahead:

| Km (mean of 12 datasets) [mM] | Km (detection points 1-4 only) [mM] | Structure (SMILES) |
| --- | --- | --- |
| 1.6 ± 0.3 | – | O=C(O)C1OC(Oc2ccc([N+](=O)[O-])cc2)C(O)C(O)C1O (stereo not drawn) [pNP-β-GalA] |
| – | 0.015 | O=C(O)[C@H]1O[C@@H](Oc2ccc([N+](=O)[O-])cc2)[C@H](O)[C@@H](O)[C@@H]1O [pNP-β-GlcA] |
| 75.8 ± 7.7 | – | O=[N+]([O-])c1ccc(O[C@@H]2O[C@H](CO)[C@H](O)[C@H](O)[C@H]2O)cc1 [pNP-β-Gal] |
